Results as given in US20130059874A1, “SUBSTITUTED N-PHENYL SPIROLACTAM BIPYRROLIDINES, PREPARATION AND THERAPEUTIC USE THEREOF” (SANOFI, priority 2010, published 2013).
Where a name gives a salt, the structure may show the parent alone.

Molecular target: T1, rhesus (Macacca Mulatta) H3 receptor (Macaca mulatta, UniProt Q865E1)
T1 construct: pcDNA5/FRT/TO (Invitrogen) containing the rhesus monkey (Macacca Mulatta) 445 amino acid H3 receptor
Assay: Rhesus H3 radioligand binding assay ([3H]-Methylhistamine displacement, WGA SPA beads)
Parameters: species or system rhesus monkey (Macacca Mulatta)
Details: [3H]-Methylhistamine 2 nM, rhesus H3 membranes, 25° C., 1 hour; Cheng-Prusoff
Protocol: Rhesus H3 membranes were prepared from the Flp-In T-REx 293 Cell Line (Invitrogen) stably transfected with pcDNA5/FRT/TO (Invitrogen) containing the rhesus monkey (Macacca Mulatta) 445 amino acid H3 receptor. (Genbank #AY231164). Stably transfected cultures were amplified in tissue culture flasks by standard tissue culture methods and induced to express rhesus H3 by exposure to 500 ng/ml tetracycline (Cellgro) for 24 hours. After induction, cells were dissociated from flasks utilizing Cell Stripper (Cellgro). Cells were centrifuged (1 K×g, 5 min) and pellet frozen in an ethanol-dry ice bath to disrupt cell membranes. Frozen cell pellet was re-suspended in 5 mM HEPES (pH 7.4, Invitrogen) at 10ml/1000 cm2 of harvested cells. The cell suspension was drawn through an 18 gauge needle (2-3×) followed by a 23 gauge needle (2-3×) to further disrupt cell membranes. The cell suspension was centrifuged (40K×g, 30 min). Cell membrane pellet was re-suspended in 5 mM HEPES (pH 7.4, Invitrogen) at a final protein concentration of 10 mg/ml. Rhesus H3 membranes were stored under liquid nitrogen prior to use in [3H]-Methylhistamine and GTPγS radioligand binding assays.
Rhesus H3 radioligand binding assay was performed using rhesus H3 receptor membranes (prepared as described above), [3H]-Methylhistamine (Perkin Elmer) and WGA SPA beads (wheat germ agglutinin scintillation proximity assay) beads (Amersham). The assay was performed in 96-well Opti-Plates (Packard). Each reaction contained 50 μl rhesus H3 membranes (20-30 μg total protein), 50 μl WGA SPA beads (0.1 μg) and 50 μl of 83Ci/mmol [^3H]-Methylhistamine (final concentration 2 nM) and 50 μl of tested compound. The compounds of this invention and/or vehicle were diluted with binding buffer from 10 mM DMSO stocks. Assay plates were sealed with TopSeal (Perkin Elmer) and mixed on shaker (25° C., 1 hour). Assay plates were read on TopCount scintillation counter (Packard). Results were analyzed by Hill transformation and Ki values were determined by Cheng-Prusoff equation.

T1 sequence (Q865E1 1-445): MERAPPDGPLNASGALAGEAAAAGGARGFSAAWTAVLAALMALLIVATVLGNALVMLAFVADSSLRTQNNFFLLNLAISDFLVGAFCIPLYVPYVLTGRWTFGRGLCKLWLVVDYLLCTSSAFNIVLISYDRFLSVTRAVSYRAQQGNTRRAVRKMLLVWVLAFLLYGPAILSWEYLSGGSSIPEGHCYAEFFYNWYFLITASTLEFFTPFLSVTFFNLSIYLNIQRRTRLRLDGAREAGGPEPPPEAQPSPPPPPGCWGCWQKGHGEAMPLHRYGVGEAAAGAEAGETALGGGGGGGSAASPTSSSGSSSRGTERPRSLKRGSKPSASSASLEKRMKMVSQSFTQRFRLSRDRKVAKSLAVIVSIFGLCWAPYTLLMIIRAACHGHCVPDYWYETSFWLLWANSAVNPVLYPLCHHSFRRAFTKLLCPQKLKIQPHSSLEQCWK

Structure (SMILES)	Ki
Cc1cc(N2CCC(N3CCC[C@@H]3C)CC2)ccc1N1CCCC2(CCCC2)C1=O [Example 2, 7-{2-Methyl-4-[4-((S)-2-methyl-pyrrolidin-1-yl)-piperidin-1-yl]-phenyl}-7-aza-spiro[4.5]decan-6-one trifluoro-acetic acid salt]	0.0127 µM
Cc1cc(N2CCC(N3CCC[C@@H]3C)CC2)ccc1N1CCC2(CCCCC2)C1=O [Example 1, 2-{2-Methyl-4-[4-((S)-2-methyl-pyrrolidin-1-yl)-piperidin-1-yl]-phenyl}-2-aza-spiro[4.5]decan-1-one trifluoroacetate]	0.000477 µM
Cc1cc(N2CCC(N3CCC[C@@H]3C)CC2)ccc1N1CCC2(CCC(C(=O)O)CC2)C1=O (stereo partly drawn) [Example 5, 2-{2-Methyl-4-[4-((S)-2-methyl-pyrrolidin-1-yl)-piperidin-1-yl]-phenyl}-1-oxo-2-aza-spiro[4.5]decane-8-carboxylic acid]	0.058 µM
Cc1cc(N2CCC(N3CCC[C@@H]3C)CC2)ccc1N1CCC2(CCC(O)CC2)C1=O (stereo partly drawn) [Example 3, 8-Hydroxy-2-{2-methyl-4-[4-((S)-2-methyl-pyrrolidin-1-yl)-piperidin-1-yl]-phenyl}-2-aza-spiro[4.5]decan-1-one]	0.0307 µM
Cc1cc(N2CC[C@H](N3CCC[C@@H]3C)C2)ccc1N1CCC2(CCCCC2)C1=O [Example 8, 2-[2-Methyl-4-((2S,3′S)-2-methyl-[1,3]bipyrrolidinyl-1′-yl)-phenyl]-2-aza-spiro[4.5]decan-1-one]	0.0106 µM
C[C@H]1CCCN1[C@H]1CCN(c2ccc(N3CCC4(CCCCC4)C3=O)c(F)c2)C1 [Example 9, 2-[2-Fluoro-4-((2S,3′S)-2-methyl-[1,3′]bipyrrolidinyl-1′-yl)-phenyl]-2-aza-spiro[4.5]decan-1-one]	0.0416 µM
COc1cc(N2CC[C@H](N3CCC[C@@H]3C)C2)ccc1N1CCC2(CCCCC2)C1=O [Example 10]	0.00265 µM
C[C@H]1CCCN1[C@@H]1CCN(c2ccc(N3CCC4(CCCCC4)C3=O)c(N)c2)C1 [Example 6, 2-[2-Amino-4-((2S,3′R)-2-methyl-[1,3′]bipyrrolidinyl-1′-yl)-phenyl]-2-aza-spiro[4.5]decan-1-one trifluoro-acetic acid salt]	0.0358 µM
Cc1cc(N2CC[C@H](N3CCC[C@@H]3C)C2)ccc1N1CCC2(CCC(O)CC2)C1=O (single isomer, unassigned) [Example 11]	0.035 µM
C[C@H]1CCCN1C1CCN(c2ccc(N3CCC4(CCCCC4)C3=O)c(N)c2)CC1 [Example 4, 2-{2-Amino-4-[4-((S)-2-methyl-pyrrolidin-1-yl)-piperidin-1-yl]-phenyl}-2-aza-spiro[4.5]decan-1-one trifluoro-acetate]	0.0114 µM
C[C@H]1CCCN1[C@H]1CCN(c2ccc(N3CCC4(CCCCC4)C3=O)cc2)C1 [Example 7, 2-[4-((2S,3′S)-2-Methyl-[1,3′]bipyrrolidinyl-1′-yl)-phenyl]-2-aza-spiro[4.5]decan-1-one]	0.00644 µM
